Earlier results on one molecule are cited in patent US7481758B2, “Pharmaceutically enhanced low-energy radiosurgery” (Sirius Medicine, LLC, priority 1997, dated 2009).

The subject of one data set is lymphocytes. The conditions noted are these: in lymphocytes; low-energy photons.
Another data set has as its system brain tumors. The conditions noted are these: low-energy x-rays and iodine, brain tumors in rabbits.

In the case of `II` [iodine], the results for the dose enhancement result with lymphocytes and with brain tumors were “up to 3” and “about 30%”, respectively.
